Measurements as given in patent publication US20170050957A1, “4-AMINO-6-(HETEROCYCLIC)PICOLINATES AND 6-AMINO-2-(HETEROCYCLIC)PYRIMIDINE-4-CARBOXYLATES AND THEIR USE AS HERBICIDES” (Dow AgroSciences LLC, priority 2013, published 2017).
Read-outs that look alike come from different tables or passages of the source.

What was measured:
[1] = system: Key Broadleaf Weed and Crop Species; test: Post-emergent Test II herbicidal activity (Table 15); format: in vivo; conditions: post-emergence, 336 h, 14 d; for pest or weed control at 35 g/ha: 35 g ai/ha; for pest or weed control at 70 g/ha: 70 g ai/ha; for pest or weed control at 140 g/ha: 140 g ai/ha
How it was run: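 Visual injury rating (0 = none, 100 = complete kill) taken 14 d after treatment, relative to untreated plants. Compounds in acetone/DMSO with crop oil concentrate and Triton X-155 were track-sprayed at 187 L/ha onto seedlings at the first-second true leaf stage.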

[2] = system: Key Grass and Sedge Weeds as well as Grass Crops; test: Post-emergent Test II herbicidal activity (Table 16); format: in vivo; conditions: post-emergence, 336 h; for pest or weed control at 35 g/ha: 35 g ai/ha; for pest or weed control at 70 g/ha: 70 g ai/ha; for pest or weed control at 140 g/ha: 140 g ai/ha
Experimental: Post-emergent Test II: Seeds or nutlets of the desired test plant species were planted in Sun Gro Metro-Mix® 360 planting mixture, which typically has a pH of 6.0 to 6.8 and an organic matter content of about 30 percent, in plastic pots with a surface area of 64 square centimeters. When required to ensure good germination and healthy plants, a fungicide treatment and/or other chemical or physical treatment was applied. The plants were grown for 7-21 d in a greenhouse with an approximate 15 h photoperiod which was maintained at about 23-29° C. during the day and 22-28° C. during the night. Nutrients and water were added on a regular basis and supplemental lighting was provided with overhead metal halide 1000-Watt lamps as necessary. The plants were employed for testing when they reached the first or second true leaf stage.
A weighed amount, determined by the highest rate to be tested, of each test compound was placed in a 25 mL glass vial and was dissolved in 4 mL of a 97:3 v/v mixture of acetone and DMSO to obtain concentrated stock solutions. […] The concentrated stock solutions obtained were diluted with 20 mL of an aqueous mixture containing acetone, water, isopropyl alcohol, DMSO, Atplus 411F crop oil concentrate, and Triton® X-155 surfactant in a 48.5:39:10:1.5:1.0:0.02 v/v ratio to obtain spray solutions containing the highest application rates. Additional application rates were obtained by serial dilution of 12 mL of the high rate solution into a solution containing 2 mL of 97:3 v/v mixture of acetone and DMSO and 10 mL of an aqueous mixture containing acetone, water, isopropyl alcohol, DMSO, Atplus 411F crop oil concentrate, and Triton X-155 surfactant in a 48.5:39:10:1.5:1.0:0.02 v/v ratio to obtain 1/2×, 1/4×, 1/8× and 1/16× rates of the high rate. Compound requirements are based upon a 12 mL application volume at a rate of 187 liters per hectare (L/ha). Formulated compounds were applied to the plant material with an overhead Mandel track sprayer equipped with 8002E nozzles calibrated to deliver 187 L/ha over an application area of 0.503 square meters at a spray height of 18 inches (43 cm) above the average plant canopy height. Control plants were sprayed in the same manner with the solvent blank.
The treated plants and control plants were placed in a greenhouse as described above and watered by subirrigation to prevent wash-off of the test compounds. After 14 d, the condition of the test plants as compared with that of the untreated plants was determined visually and scored on a scale of 0 to 100 percent where 0 corresponds to no injury and 100 corresponds to complete kill.

[3] = Abutilon theophrasti, velvetleaf (Abutilon theophrasti), read-out: Visual Growth Reduction (%) 14 Days After Application, ABUTH
[4] = Amaranthus retroflexus, redroot pigweed (Amaranthus retroflexus), read-out: Visual Growth Reduction (%) 14 Days After Application, AMARE
[5] = Brassica napus, oilseed rape, canola (Brassica napus), read-out: Visual Growth Reduction (%) 14 Days After Application, BRSNN
[6] = Chenopodium album, lambsquarters (Chenopodium album), read-out: Visual Growth Reduction (%) 14 Days After Application, CHEAL
[7] = Euphorbia heterophylla, wild poinsettia (Euphorbia heterophylla), read-out: Visual Growth Reduction (%) 14 Days After Application, EPHHL
[8] = Helianthus annuus, sunflower (Helianthus annuus), read-out: Visual Growth Reduction (%) 14 Days After Application, HELAN
[9] = Cyperus esculentus, yellow nutsedge (Cyperus esculentus), 14 d, read-out: Visual Growth Reduction (%) 14 Days After Application, CYPES
[10] = Echinochloa crus-galli, barnyardgrass (Echinochloa crus-galli), 14 d, read-out: Visual Growth Reduction (%) 14 Days After Application, ECHCG
[11] = Oryza sativa, rice (Oryza sativa), 14 d, read-out: Visual Growth Reduction (%) 14 Days After Application, ORYSA
[12] = Setaria faberi, giant foxtail (Setaria faberi), 14 d, read-out: Visual Growth Reduction (%) 14 Days After Application, SETFA
[13] = Triticum aestivum, wheat, spring (Triticum aestivum), 14 d, read-out: Visual Growth Reduction (%) 14 Days After Application, TRZAS
[14] = Zea mays, maize, corn (Zea mays), 14 d, read-out: Visual Growth Reduction (%) 14 Days After Application, ZEAMX

With COC(=O)c1nc(-c2ccc3cc[nH]c3c2)cc(N)c1Cl [Compound 1.21] the pest or weed control at 35 g/ha [1, 3] was 60 to 74%, the pest or weed control at 70 g/ha [1, 3] was 60 to 74% and the pest or weed control at 35 g/ha [1, 4] was 0 to 29%. The pest or weed control at 70 g/ha [1, 4] was 0 to 29%, the pest or weed control at 35 g/ha [1, 5] was 0 to 29% and the pest or weed control at 70 g/ha [1, 5] was 0 to 29%. It also gave a pest or weed control at 35 g/ha [1, 6] of 45 to 59%, a pest or weed control at 70 g/ha [1, 6] of 85 to 94% and a pest or weed control at 35 g/ha [1, 7] of 75 to 84%. For the same compound, the pest or weed control at 70 g/ha [1, 7] was 85 to 94%, the pest or weed control at 35 g/ha [1, 8] was 45 to 59% and the pest or weed control at 70 g/ha [1, 8] was 75 to 84%. It also gave a pest or weed control at 35 g/ha [2, 9] of 0 to 29%, a pest or weed control at 70 g/ha [2, 9] of 0 to 29% and a pest or weed control at 140 g/ha [2, 9] of 0 to 29%. It also gave a pest or weed control at 35 g/ha [2, 10] of 0 to 29%, a pest or weed control at 70 g/ha [2, 10] of 0 to 29% and a pest or weed control at 35 g/ha [2, 11] of 0 to 29%. It also gave a pest or weed control at 70 g/ha [2, 11] of 0 to 29%, a pest or weed control at 140 g/ha [2, 11] of 0 to 29% and a pest or weed control at 140 g/ha [2, 12] of 0 to 29%. It also gave a pest or weed control at 35 g/ha [2, 13] of 0 to 29%, a pest or weed control at 70 g/ha [2, 13] of 0 to 29% and a pest or weed control at 140 g/ha [2, 13] of 0 to 29%. For the same compound, the pest or weed control at 35 g/ha [2, 14] was 0 to 29%, the pest or weed control at 70 g/ha [2, 14] was 0 to 29% and the pest or weed control at 140 g/ha [2, 14] was 0 to 29%. The melting point was 83 to 85 °C.

C=Cc1c(N)nc(-c2ccc3cc[nH]c3c2F)nc1C(=O)O [Compound 1.39] gave a pest or weed control at 35 g/ha [1, 3] of 0 to 29%, a pest or weed control at 70 g/ha [1, 3] of 0 to 29% and a pest or weed control at 35 g/ha [1, 4] of 95 to 100%. The pest or weed control at 70 g/ha [1, 4] was 95 to 100%, the pest or weed control at 35 g/ha [1, 5] was 75 to 84% and the pest or weed control at 70 g/ha [1, 5] was 85 to 94%. The pest or weed control at 35 g/ha [1, 6] was 95 to 100%, the pest or weed control at 70 g/ha [1, 6] was 75 to 84% and the pest or weed control at 35 g/ha [1, 7] was 85 to 94%. It also gave a pest or weed control at 70 g/ha [1, 7] of 75 to 84%, a pest or weed control at 35 g/ha [1, 8] of 0 to 29% and a pest or weed control at 70 g/ha [1, 8] of 0 to 29%. For the same compound, the pest or weed control at 35 g/ha [2, 9] was 0 to 29%, the pest or weed control at 70 g/ha [2, 9] was 0 to 29% and the pest or weed control at 35 g/ha [2, 10] was 0 to 29%. For the same compound, the pest or weed control at 70 g/ha [2, 10] was 0 to 29%, the pest or weed control at 35 g/ha [2, 11] was 0 to 29% and the pest or weed control at 70 g/ha [2, 11] was 0 to 29%. It also gave a pest or weed control at 35 g/ha [2, 12] of 0 to 29%, a pest or weed control at 70 g/ha [2, 12] of 0 to 29% and a pest or weed control at 35 g/ha [2, 13] of 0 to 29%. For the same compound, the pest or weed control at 70 g/ha [2, 13] was 0 to 29%, the pest or weed control at 35 g/ha [2, 14] was 0 to 29% and the pest or weed control at 70 g/ha [2, 14] was 0 to 29%. The melting point was 209 to 211 °C.

Compound Cn1ncc2ccc(-c3nc(C(=O)O)c(Cl)c(N)c3F)cc21 [Compound 4.08] has a pest or weed control at 140 g/ha [1, 3] of 0 to 29%, a pest or weed control at 140 g/ha [1, 5] of 60 to 74% and a pest or weed control at 140 g/ha [1, 6] of 95 to 100%. The pest or weed control at 140 g/ha [1, 7] was 0 to 29%, the pest or weed control at 140 g/ha [1, 8] was 85 to 94% and the pest or weed control at 140 g/ha ([2]; Cyperus esculentus, yellow nutsedge (Cyperus esculentus), 14 days after application, read-out: Visual Growth Reduction (%) 14 Days After Application CYPES) was 0 to 29%. The pest or weed control at 140 g/ha ([2]; Echinochloa crus-galli, barnyardgrass (Echinochloa crus-galli), 14 days after application, read-out: Visual Growth Reduction (%) 14 Days After Application ECHCG) was 0 to 29%, the pest or weed control at 140 g/ha ([2]; Oryza sativa, rice (Oryza sativa), 14 days after application, read-out: Visual Growth Reduction (%) 14 Days After Application ORYSA) was 0 to 29% and the pest or weed control at 140 g/ha ([2]; Setaria faberi, giant foxtail (Setaria faberi), 14 days after application, read-out: Visual Growth Reduction (%) 14 Days After Application SETFA) was 0 to 29%. It also gave a pest or weed control at 140 g/ha ([2]; Triticum aestivum, wheat, spring (Triticum aestivum), 14 days after application, read-out: Visual Growth Reduction (%) 14 Days After Application TRZAS) of 0 to 29%, a pest or weed control at 140 g/ha ([2]; Zea mays, maize, corn (Zea mays), 14 days after application, read-out: Visual Growth Reduction (%) 14 Days After Application ZEAMX) of 0 to 29% and a melting point of 182 to 184 °C.
